Laboratory results taken from publication PMC11566078, “Bactericidal activities and biochemical features of 16 antimicrobial peptides against bovine-mastitis causative pathogens” (Veterinary Research, 2024).
Like-named read-outs stand apart in the source and are kept apart here. Where no end group is shown, it is not given here.

Columns and labels:
[1] = test system: all bacterial strains in the panel and field isolates from milk; type: cell-based; conditions: against all bacterial strains in the panel and field isolates from milk
Experimental: (§1) The standard bacterial strains used for antimicrobial activity assays include Staphylococcus aureus ATCC (American Type Culture Collection, Manassas, VA, USA) 6538, Bacillus cereus ATCC 10876, Enterococcus faecalis ATCC 29212, Streptococcus agalactiae ATCC 27956, Streptococcus dysgalactiae ATCC 27957, Streptococcus equi subsp. zooepidemicus ATCC 43079, Escherichia coli ATCC 25922, and Pseudomonas aeruginosa ATCC 27853. Most bacterial strains were cultured in LB medium except for E. faecalis and streptococci, which were cultivated in brain heart infusion (BHI) broth (BD Bioscience).
(§2) All plates were cultivated aerobically.
(§3) Experiments were conducted in triplicate.

PK15 cells [2] = assay: Cytotoxicity, WST-1 cell viability; conditions: 24 h, 37 °C, repeated three times
Experimental: (§5) Human keratinocytes (HaCaT) and pig kidney fibroblast cells (PK15, ATCC CCL-33) were cultured in Dulbecco’s modified Eagle’s medium (DMEM; Hyclone™, Logan, UT, USA) and supplemented with 10% foetal bovine serum (FBS; Hyclone™, Logan, UT, USA), 1% penicillin–streptomycin (Hyclone™) at 37 °C, and 5% CO2 up to 80% confluence. Cell substratum adhesion was disrupted using Accutase (Innovative Cell Technologies, San Diego, CA, USA). A total of 4 × 10^4 cells were incubated for 24 h at 37 °C and 5% CO2 in each well of a 96-well plate containing 64 and 160 µg/mL of each peptide.
(§6) A positive control for complete cell lysis was established using Triton-X100 (1%), and untreated cells were used as the negative control. After incubation, the medium was removed from the wells and replaced with 10 µL of colouring solution (Cell Proliferation Reagent WST-1™) and 100 µL of DMEM (Hyclone™), per the manufacturer’s protocol. Each well absorbance was measured at 440 nm (peptide-treated and control) and 650 nm (background). These measurements were recorded as the optical density (OD) using a microplate reader (xMark™ spectrophotometer; Bio-Rad, CA, USA). Cell viability was calculated using the following equation: CellViability(%)=100×(ODpeptide-ODbackground)/(ODnegative-ODbackground)
(§7) All experiments were performed in triplicate.

HaCaT cells [3] = assay: Cytotoxicity, WST-1 cell viability; conditions: 24 h, 37 °C, repeated three times
Experimental: as §5, §6, §7

[4] = test system: Staphylococcus aureus ATCC 6538; assay: microbe, parasite or virus in culture; type: cell-based; conditions: ATCC 6538, 6 h
Experimental: as §1, with “[…]” for “agalactiae ATCC”, “Bioscience). […] Experiments were conducted in triplicate.” for “Bioscience).”

[5] = test system: Streptococcus equi subsp. zooepidemicus ATCC 43079; assay: microbe, parasite or virus in culture; type: cell-based; conditions: ATCC 43079, 6 h
Experimental: as §1, with “[…]” for “agalactiae ATCC”, “Bioscience). […] Experiments were conducted in triplicate.” for “Bioscience).”

[6] = test system: Enterococcus faecalis ATCC 29212; assay: microbe, parasite or virus in culture; type: cell-based; conditions: ATCC 29212, 6 h
Experimental: as §1, with “[…]” for “agalactiae ATCC”, “Bioscience). […] Experiments were conducted in triplicate.” for “Bioscience).”

[7] = test system: Streptococcus dysgalactiae ATCC 27957; assay: microbe, parasite or virus in culture; type: cell-based; conditions: ATCC 27957, 6 h
Experimental: as §1, with “[…]” for “agalactiae ATCC”, “Bioscience). […] Experiments were conducted in triplicate.” for “Bioscience).”

[8] = test system: Streptococcus agalactiae ATCC 27956; assay: microbe, parasite or virus in culture; type: cell-based; conditions: ATCC 27956, 6 h
Experimental: as §1, with “[…]” for “agalactiae ATCC”, “Bioscience). […] Experiments were conducted in triplicate.” for “Bioscience).”

[9] = test system: Bacillus cereus ATCC 10876; assay: microbe, parasite or virus in culture; type: cell-based; conditions: ATCC 10876, 6 h
Experimental: as §1, with “[…]” for “agalactiae ATCC”, “Bioscience). […] Experiments were conducted in triplicate.” for “Bioscience).”

[10] = test system: Pseudomonas aeruginosa ATCC 27853; assay: microbe, parasite or virus in culture; type: cell-based; conditions: ATCC 27853, 6 h
Experimental: as §1, with “[…]” for “agalactiae ATCC”, “Bioscience). […] Experiments were conducted in triplicate.” for “Bioscience).”

E. coli (ATCC 25922) [11] = type: cell-based, Escherichia coli
Experimental: as §3
(§4) The MICs against E. coli (ATCC 25922) for cc-CATH3, ML-CATH, and PD-CATH in 150 mM NaCl and different pH (pH 5, 6, and 7) that were adjusted using acetic acid (Sigma Aldrich) were determined as described above. For serum stability assay, each AMP at four different concentrations was dissolved in 50% (v/v) FBS (Hyclone™) and incubated at 37 °C for 0, 60, and 120 min, respectively. As described in a previous study, ΔHg-CATH was used as a control for serum sensitivity. The antimicrobial activity of cc-CATH3, ML-CATH, and PD-CATH against E. coli was assessed for each condition as above. All experiments were conducted in triplicate.

[12] = test system: eight standard bacterial strains; type: cell-based; conditions: all eight standard strains; range stated for the three peptides
Experimental: as §1, with “[…]” for “agalactiae ATCC”, “Bioscience). […] Experiments were conducted in triplicate.” for “Bioscience).”

Staphylococcus xylosus = assay: microbe, parasite or virus in culture; type: cell-based; conditions: 6 h
Experimental: as §2, §3

Corynebacterium simulans = assay: microbe, parasite or virus in culture; type: cell-based; conditions: 6 h
Experimental: as §2, §3

Streptococcus uberis = assay: microbe, parasite or virus in culture; type: cell-based; conditions: 6 h
Experimental: as §2, §3

[13] = test system: Staphylococcus chromogenes; assay: microbe, parasite or virus in culture; type: cell-based; conditions: 6 h
Experimental: as §2, §3

[14] = test system: Staphylococcus epidermidis; assay: microbe, parasite or virus in culture; type: cell-based; conditions: 6 h
Experimental: as §2, §3

[15] = test system: Glutamicibacter halophytocola; assay: microbe, parasite or virus in culture; type: cell-based; conditions: 6 h
Experimental: as §2, §3

E. coli (ATCC 25922) [16] = type: in vitro ADME, Escherichia coli
Experimental: as §4
Figure 2 Changes in the antibacterial activity of cc-CATH3, ML-CATH, and PD-CATH after incubation with naïve serum. cc-CATH3, ML-CATH, and PD-CATH peptides were incubated in 50% (v/v) FBS each for 0, 60, and 120 min before applying to antimicrobial activity assay against E. coli (ATCC 25922). The antimicrobial activity was determined by measuring bacterial growth at OD 450 nm. The X and Y axes indicate peptide concentration and absorbance at 450 nm, respectively. Samples containing 50% FBS in the absence of the peptides indicate a control for bacterial growth without AMP treatments. The antimicrobial activity of cc-CATH3 (A), ML-CATH (B), and PD-CATH (C) after the treatment of FBS-incubated AMPs was shown.

bovine erythrocytes = assay: Haemolytic activity; type: cell-based; conditions: OD 410 nm, repeated three times
Experimental: The experimental procedures were conducted in accordance with the guidelines approved by the Institutional Animal Care and Use Committee (IACUC) of Konkuk University, Seoul, Korea, and bovine blood was collected from a cow at a local farm using a BD Vacutainer® Sodium Heparin (BD Bioscience) to analyse haemolytic activity. Plasma was removed from the whole blood by centrifugation. Erythrocytes were washed thrice with phosphate-buffered saline (PBS, pH 7.4) and resuspended in PBS at a concentration of 2% (v/v). Subsequently, 100 µL of the erythrocyte suspension was added to each well of a 96-well microtiter plate. The plate contained an equal volume of the peptides in PBS with different concentrations of 10, 20, 40, 80, and 160 μg/mL. Triton-X 100 (1%) and PBS were used as positive and negative controls, respectively. Plates were incubated at 37 °C for 1 h. The release of haemoglobin into the supernatant was monitored by measuring the change in OD at 410 nm using a microplate reader (xMark™ spectrophotometer; Bio-Rad). Results from three independent experiments were pooled. Hemolysis was calculated using the formula: HemolyticPercentage(%)=100×(ODpeptide-ODnegative)/(ODpositive-ODnegative)
All experiments were carried out in triplicate.

[17] = test system: field isolates from milk with high SCCs; conditions: all field isolates except A. hydrophila; range stated for the three peptides
Experimental: The minimum inhibitory concentration (MIC) was determined by following the manufacturer’s protocol and Clinical and Laboratory Standards Institute (CLSI) guidelines (2018) using a colourimetric method specified by the Microbial Viability Assay Kit-WST (Dojindo, Kumamoto, Japan). Four colonies of each bacterium were inoculated into 5 mL of LB medium and incubated at 37 °C for 4–6 h. The cells were then washed twice with sterile saline (0.9% NaCl) and seeded into a single well of a 96-well plate at a density of 1.5 × 10^5 cells/well, adjusting by McFarland standard 0.5. Subsequently, 180 µL/well of fresh MH broth (BD Bioscience) was added to the plate. Ampicillin, chloramphenicol, and gentamicin sulfate were used as controls for antimicrobial activity.
Different concentrations of each peptide and reference antibiotics (up to 40 µg/mL) were serially diluted in 10 µL of MH broth and added to each well. The plate was incubated at 37 °C for 6 h, using BHI broth to culture slow-growing fastidious strains, including E. faecalis, A. hydrophila, C. simulans, G. halophytocola, and streptococci. Cation-adjusted Mueller Hinton II broth (CAMHB) was employed to cultivate P. aeruginosa. Afterwards, 10 µL of the colouring reagent was added, and cells were incubated at 37 °C for 2 h. UV absorbance was measured for each well at 450 nm using a microplate spectrophotometer (xMark spectrophotometer; Bio-Rad, Hercules, CA, USA). The MIC values were determined when the absorbance difference between treatments and blanks (media and colouring reagent only) decreased to < 0.05. Experiments were conducted in triplicate.

Aeromonas hydrophila = assay: microbe, parasite or virus in culture; type: cell-based; conditions: 6 h
Experimental: as §2, §3

HaCaT cells [18] = test system: HaCaT cells
Experimental: as §5, §6, §7

PK15 cells [19] = test system: PK15 cells
Experimental: as §5, §6, §7

[20] = 10 μg/mL, 2% (v/v) erythrocytes in PBS pH 7.4, 37 °C 1 h, mean ± SD
[21] = 20 μg/mL, 2% erythrocytes in PBS pH 7.4, 37 °C 1 h
[22] = 40 μg/mL, 2% erythrocytes in PBS pH 7.4, 37 °C 1 h
[23] = 80 μg/mL, 2% erythrocytes in PBS pH 7.4, 37 °C 1 h

Experimental for PK15 and HaCaT cells: as §5, §6, §7

| Substance | minimum inhibitory concentration, range over strains [1] [µM] | Cell viability ± SD, PK15 (PK15 cells [2]; 64 μg/mL peptide) [%] | Cell viability ± SD, PK15 (PK15 cells [2]; 160 μg/mL peptide) [%] | Cell viability ± SD, HaCaT (HaCaT cells [3]; 64 μg/mL peptide) [%] | Cell viability ± SD, HaCaT (HaCaT cells [3]; 160 μg/mL peptide) [%] | Minimal inhibitory concentration, Staphylococcus aureus [4] | Minimal inhibitory concentration, Streptococcus equi subsp. zooepidemicus [5] | Minimal inhibitory concentration, Enterococcus faecalis [6] | Minimal inhibitory concentration, Streptococcus dysgalactiae [7] | Minimal inhibitory concentration, Streptococcus agalactiae [8] | Minimal inhibitory concentration, Bacillus cereus [9] | Minimal inhibitory concentration, Pseudomonas aeruginosa [10] | MICs, range over all bacterial species in the test panel [12] [µg/mL] | Minimal inhibitory concentration, Staphylococcus xylosus (Staphylococcus xylosus) | Minimal inhibitory concentration, Corynebacterium simulans (Corynebacterium simulans) | Minimal inhibitory concentration, Streptococcus uberis (Streptococcus uberis) | Minimal inhibitory concentration, Staphylococcus chromogenes [13] | Minimal inhibitory concentration, Staphylococcus epidermidis [14] | Minimal inhibitory concentration, Glutamicibacter halophytocola [15] | cell viability of PK15 and HaCaT (PK15 and HaCaT cells) | further results |
| --- | --- | --- | --- | --- | --- | --- | --- | --- | --- | --- | --- | --- | --- | --- | --- | --- | --- | --- | --- | --- | --- |
| LNPLIKAGIFILKHRRPIGRGIEITGRGIKKFFSK [ML-CATH] | 0.2 to 10.3 | 96.2 ± 0.4 | 38.0 ± 2.2 | 99.7 ± 0.9 | 98.0 ± 1.5 | 2 (0.5) μg/mL | 9 (2.3) μg/mL | 5 (1.3) μg/mL | 14 (3.5) μg/mL | 8 (2.0) μg/mL | 3 (0.8) μg/mL | 42 (10.6) μg/mL | 2 to 42 | 2 (0.5) μg/mL | 1 (0.3) μg/mL | 3 (0.8) μg/mL | 2 (0.5) μg/mL | 2 (0.5) μg/mL | 2 (0.5) μg/mL | 91.1 ± 1.8% to 100.6 ± 0.4 | MIC against E. coli in more acidic conditions (E. coli (ATCC 25922) [11]; ATCC 25922, pH 5): 2 µg/mL; antibacterial activity after incubation with serum (E. coli (ATCC 25922) [16]): remained unaffected under all the tested conditions; Haemolytic activity against bovine erythrocytes (bovine erythrocytes; [20]): 5.8 ± 0.4%; Haemolytic activity against bovine erythrocytes (bovine erythrocytes; [21]): 6.4 ± 0.8%; Haemolytic activity against bovine erythrocytes (bovine erythrocytes; [22]): 7.0 ± 0.8%; Haemolytic activity against bovine erythrocytes (bovine erythrocytes; [23]): 7.7 ± 0.2%; Haemolytic activity against bovine erythrocytes (bovine erythrocytes; 160 μg/mL, 2% erythrocytes in PBS pH 7.4, 37 °C 1 h): 11.8 ± 4.5%; MICs, range over field isolates [17]: 0.8 to 5 µg/mL |
| RVRRFWPLVPVAINTVAAGINLYKAIRRK [cc-CATH3] | 0.2 to 10.3 | 91.1 ± 1.8 | 32.7 ± 3.5 | 100.6 ± 0.4 | 90.1 ± 4.8 | 2 (0.6) μg/mL | 5 (1.5) μg/mL | 5 (1.5) μg/mL | 7 (2.0) μg/mL | 4 (1.28) μg/mL | 4 (1.28) μg/mL | 4 (1.28) μg/mL | 2 to 42 | 2 (0.6) μg/mL | 0.8 (0.2) μg/mL | 4 (1.2) μg/mL | 3 (0.9) μg/mL | 2 (0.6) μg/mL | 2 (0.6) μg/mL | 91.1 ± 1.8% to 100.6 ± 0.4 | Minimal inhibitory concentration against E. coli, 150 mM NaCl (E. coli (ATCC 25922) [11]; ATCC 25922): 1.6 µM; Minimal inhibitory concentration, Aeromonas hydrophila (Aeromonas hydrophila): > 160 (47.4) μg/mL; antibacterial activity after incubation with serum (E. coli (ATCC 25922) [16]): significantly affected in concentrations lower than 3 × MIC; Haemolytic activity against bovine erythrocytes (bovine erythrocytes; [20]): 0.0 ± 0.1%; Haemolytic activity against bovine erythrocytes (bovine erythrocytes; [21]): 0.0 ± 0.1%; Haemolytic activity against bovine erythrocytes (bovine erythrocytes; [22]): 0.4 ± 0.2%; Haemolytic activity against bovine erythrocytes (bovine erythrocytes; [23]): 0.8 ± 0.1%; MICs, range over field isolates [17]: 0.8 to 5 µg/mL |
| Triton X-100 [Triton X-100 (1%)] |  |  |  |  |  |  |  |  |  |  |  |  |  |  |  |  |  |  |  |  | Cell viability ± SD, HaCaT (HaCaT cells [18]): 13.0 ± 0.4%; Cell viability ± SD, PK15 (PK15 cells [19]): 13.3 ± 0.1% |
